Experiments:
[1] = tested on: primary porcine RPE cells; test: RPE phototoxicity: photoprotection of RPE cells exposed to A2E and blue light; type: cell-based, pig; settings: A2E 30 μM + blue-light illumination
Procedure: RPE cells were obtained from pig eyes, as previously described. RPE cells were seeded on a 96-well plate at a density of 1.5 × 10^5 cells/cm^2 in DMEM 2% FCS. BIO201, BIO203, or its pure enantiomers were added in increasing concentrations to the culture medium 48 h before illumination. A2E was added to the medium at a final concentration of 30 μM, and 19 h later, blue-light illumination was performed for 50 min using a 96 blue-led device (Durand, St Clair de la Tour, France) emitting at 470 nm (1440 mcd, 8.6 mA). Just before illumination, the culture medium was replaced by a modified DMEM without any photosensitizer and with 2% FCS. Twenty-four hours after blue-light irradiation, all cell nuclei were stained with Hoechst 33342, and nuclei of dead cells with ethidium homodimer 2, fixed with paraformaldehyde (4% in PBS, 10 min) and 9 pictures per well were captured using a fluorescence microscope (Nikon TiE) equipped with a CoolSNAP HQ2 camera and driven by Metamorph Premier On-Line program. Quantification of live cells was performed using Metamorph Premier Off-Line and a homemade program by subtraction of dead cells from all cells. For cytokines mRNA analysis, RPE cells were seeded in 24-well plates and left untreated or treated with A2E or BIO203 alone or A2E plus BIO203. After 48 h, cells were lysed using the lysis buffer from the NucleoSpin® RNA kit, and the samples were stored at −80 °C.

[2] = Ocular PK in rats following four repeated IP administrations; type: in vivo; settings: rat eye; for ocular exposure: BIO201 10 mg/kg, BIO203 2.5 mg/kg
Procedure: The compounds were administered to 8–9 months old Male Sprague-Dawley rats (n = 3 per group and per collection time) by four successive intraperitoneal administrations in vehicle (DMSO/NaCl/NaOH for BIO203 and PBS/Tween 80 (95/5) for BIO201). The solutions of BIO203 and BIO201 were centrifuged, and the clear supernatants were administered to rats. Administered volume was 10 mL/kg, and the final injected concentrations were 10 mg/kg and 2.5 mg/kg for BIO201 and BIO203, respectively. Again, doses administered differ because BIO201 and BIO203 solubility are not equivalent in their respective vehicles. The dose of BIO203 was reduced to avoid toxicity of DMSO present in the vehicle, but the same volumes were injected into animals. The eyes were collected 1 h after administrations n°1 to 4 according to the following timing: 1 h, 3.5 h, 5.5 h, and 7.5 h. After euthanasia, the two eyes of each rat were collected in a Precellys tube, frozen, and stored at −80 °C.
Analysis was performed on an LC 1260 System coupled with Mass Spectrometer QQQ-6420 with DAD (Agilent Technologies). Norbixin and BIO203 were eluted from a reverse-phase column (2.1 × 50 mm; 3 μm particles; Ace Excel C18) with the following gradient of acetonitrile in water (both containing 0.1% formic acid): 55 to 100% in 5 min), (flowrate: 0.3 mL/min). […] were monitored by a mass spectrometer, in positive MRM mode, with the following transitions, respectively, 381.1 -> 144.9 and 478.1 -> 362.9. For quantification of BIO201 and BIO203, calibration curves were prepared under the same conditions as the sample matrix, with various amounts of BIO201 or BIO203 (25 to 10,000 ng/mL in plasma and 5 to 500 ng/mL for eyes).
For determination of concentrations of BIO201 or BIO203 in ocular tissues, each eye was homogenized in CHCl3/MeOH (1:1, v/v) (0.5 mL) with a homogenizer (Precellys-24) during 2 cycles (30 s) at 6500 rpm. The internal standard (retinoic acid at 10 µg/mL) was added, and the organic layer was extracted. The homogenate was then extracted two times with CHCl3/CH2Cl2 (0.5 mL). […]

[3] = tested on: albino rats exposed to blue-light-induced photoreceptor degeneration; test: Blue-light damage (BLD) study in albino rats: ERG; type: in vivo, rat; settings: for effect on visual function (ERG A-wave and B-wave): four IP administrations; for efficacy dose in the rat model of BLD: IP
Procedure: The ERG in rats was performed using the electrophysiological system RETI-animal® from Roland Consult. ERG was recorded on both eyes from overnight dark-adapted animals. Rats were anesthetized by an intramuscular injection of a mix of Rompun® (xylazine)/Imalgene® (ketamine) before ERG measurement. Ten to fifteen minutes before measurement, one drop of Mydriaticum® (0.5% tropicamide) was instilled for pupillary dilatation. The A-wave and B-wave implicit times (ms) and amplitudes (µV) were measured for each ERG. The B-wave amplitude (value and %) was given as informative data. ERG parameters: Ganzfeld Q450C, Color: white maximum, Maximum intensity: 3 cd/m^2 (0 dB); Duration 0.24 ms; number of flashes: 1, Filter: 50 Hz, Impedance threshold: 50 kΩ. For scotopic ERGs, the A-wave amplitudes were measured from the baseline to the peak of the negative potential, whereas B-wave amplitudes were measured from the trough of the A-wave to the peak of the positive potential. The recordings obtained from these analyses were tabulated and normalized (%) for each eye. Group means, standard deviation, and median values were calculated, considering each eye from one animal as a separate value. ERG recordings in mice were performed as previously described.
Sixty-four animals were selected based on good health and on scotopic electroretinogram performed before induction when the A-wave amplitude of both eyes was in the range of the global mean (all animals) of A-wave amplitude ± 1.96 SD. Animals were then randomized into the study groups using a macro function in Excel® software based on the A-wave amplitude of both eyes (mean value). On Day 0, BIO203, negative controls, and comparator (N-tert-Butyl-a-phenylnitrone (PBN)) were intraperitoneally injected using a 25 G needle in rats that have been dark-adapted for 36 h. Individually housed rats were then exposed for 6 h (±5 min) to a continuous blue, fluorescent light (400–540 nm) in clear plastic cages. After exposure and administration, the rats were placed in a dark room for 24 h (±1 h) and then were returned to rearing cyclic light conditions.

Row | SMILES | survival of RPE cells ([1]; 20 μM compound) | concentration of maximum efficacy / highest protection [1] | ocular exposure [2] | effect on visual function (ERG A-wave and B-wave) ([3]; 50 mg/kg, positive controls) | efficacy dose in the rat model of BLD [3] | concentration from which protective effect was observed [1] | ocular exposure of BIO203 relative to BIO201 [2] | effect on visual function (ERG A-wave and B-wave) ([3]; 5 mg/kg, ERG 7 days after blue light) | effect on visual function (ERG A-wave and B-wave) ([3]; 10 mg/kg, ERG 7 days after blue light) | effect on visual function (ERG A-wave and B-wave) ([3]; 25 mg/kg, ERG 7 days after blue light, p < 0.0001)
1 | CC(=C/C=C/C(C)=C/C=C/C=C(C)/C=C/C=C(C)/C=C/C(=O)O)/C=C/C(=O)O [norbixin, 9′-cis-norbixin] | more than 80% | 20 µM | 16.7 ng·h/eye | protected the visual functions | 50 mg/kg |  |  |  |  | 
2 | COC1CCCN(C(=O)/C=C/C(C)=C/C=C/C(C)=C/C=C/C=C(C)/C=C/C=C(C)\C=C\C(=O)O)C1 (stereo not shown) [BIO203] |  | 15 µM | 144.9 ng·h/eye |  | 25 mg/kg | ≥ 10 µM | approximately 10 times | no significant effect | no significant effect | protective effect

— publication PMC10049354, “Anti-Inflammatory Effects and Photo- and Neuro-Protective Properties of BIO203, a New Amide Conjugate of Norbixin, in Development for the Treatment of Age-Related Macular Degeneration (AMD)” (International Journal of Molecular Sciences, 2023)
